From US20090075937A1, “LHRH ANTAGONISTS FOR THE TREATMENT OF LOWER URINARY TRACT SYMPTOMS” (AETERNA ZENTARIS GmbH, priority 2007, published 2009)

What was measured:
[1] = tested on: study subjects; assay: IPSS irritative subscore (sum of nocturia, frequency of emptying and urgency to urinate); type: in vivo, human; conditions: for IPSS irritative subscore (nocturia, frequency of emptying, urgency to urinate): percentage variation from baseline
Description: (§1) The results shown are percentage variations from baseline at the beginning of the study (week 0).

[2] = tested on: study subjects; assay: Nocturia: how often the study subjects got up during the night in order to urinate; type: in vivo, human
Description: as §1
The results shown are mean values, how often the study subjects had to get up.

[3] = tested on: study subjects; assay: Frequency of emptying: how often the study subjects had to urinate a second time within a 2 hour test period; type: in vivo, human
Description: as §1
The results shown are mean values, how often the study subjects had to urinate a second time.

[4] = tested on: testosterone blood levels; assay: Median testosterone blood levels / chemical (hormonal) castration; conditions: blood level
Description: Preferably, chemical (hormonal) castration is a testosterone castration and refers to a testosterone blood level of equal or below 1.2 ng/mL, preferably 0.5 ng/mL.
Study subjects were treated with Cetrorelix pamoate with the following doses according to the following administration schemes: • 60 mg Cetrorelix pamaote administered at week 0 and 30 mg Cetrorelix pamaote administered at week 2 (treatment period) followed by up to 5 months of no treatment (treatment-free period) • 60 mg Cetrorelix pamaote administered at week 0 and 60 mg Cetrorelix pamaote administered at week 2 (treatment period) followed by up to 5 months of no treatment (treatment-free period)
Study subjects were treated with Cetrorelix acetate with the following doses according to the following administration schemes: • 5 mg Cetrorelix acetate administered at week 0, 1, 2 and 3 (total monthly dose of 20 mg) (treatment period) followed by up to 4 months of no treatment (treatment-free period) • 10 mg Cetrorelix acetate administered at week 0 and 10 mg Cetrorelix acetate administered at week 2 (treatment period) followed by up to 4 months of no treatment (treatment-free period) • 10 mg Cetrorelix acetate administered at week 0, 1, 2 and 3 (total monthly dose of 40 mg) (treatment period) followed by up to 4 months of no treatment (treatment-free period)
Study subjects were treated with Ozarelix with the following doses according to the following administration schemes: • 15 mg Ozarelix administered at week 0 and 15 mg Ozarelix administered at week 2 (treatment period) followed by up to 4 months of no treatment (treatment-free period)

[5] = 60+30 mg and 60+60 mg schemes, largest difference over weeks 4-24
[6] = 60 + 30: 60 mg week 0, 30 mg week 2, Week 0
[7] = 60 + 30: 60 mg week 0, 30 mg week 2, Week 4
[8] = 60 + 30: 60 mg week 0, 30 mg week 2, Week 8
[9] = 60 + 30: 60 mg week 0, 30 mg week 2, Week 12
[10] = 60 + 30: 60 mg week 0, 30 mg week 2, Week 16
[11] = 60 + 30: 60 mg week 0, 30 mg week 2, Week 20
[12] = 60 + 30: 60 mg week 0, 30 mg week 2, Week 24
[13] = 60 + 60: 60 mg week 0, 60 mg week 2, Week 0
[14] = 60 + 60: 60 mg week 0, 60 mg week 2, Week 4
[15] = 60 + 60: 60 mg week 0, 60 mg week 2, Week 8
[16] = 60 + 60: 60 mg week 0, 60 mg week 2, Week 12
[17] = 60 + 60: 60 mg week 0, 60 mg week 2, Week 16
[18] = 60 + 60: 60 mg week 0, 60 mg week 2, Week 20
[19] = 60 + 60: 60 mg week 0, 60 mg week 2, Week 24

**Q.** Which “further decrease in IPSS irritative subscore compared to placebo” value [1, 5] does the source give for Cetrorelix pamoate here?
**A.** Its value is “up to 30%”.

**Q.** And the “IPSS irritative subscore (nocturia, frequency of emptying, urgency to urinate)” value [1, 6]?
**A.** Its value is 0%.

**Q.** What about the “IPSS irritative subscore (nocturia, frequency of emptying, urgency to urinate)” value [1, 7] of the same substance?
**A.** The value was −14.8%.

**Q.** And the “IPSS irritative subscore (nocturia, frequency of emptying, urgency to urinate)” value [1, 8]?
**A.** Its value is −33.3%.

**Q.** And the “IPSS irritative subscore (nocturia, frequency of emptying, urgency to urinate)” value [1, 9]?
**A.** The value was −29.3%.

**Q.** And the “IPSS irritative subscore (nocturia, frequency of emptying, urgency to urinate)” value [1, 10]?
**A.** Its value is −33.3%.

**Q.** And the “IPSS irritative subscore (nocturia, frequency of emptying, urgency to urinate)” value [1, 11]?
**A.** Its value is −33.3%.

**Q.** And the “IPSS irritative subscore (nocturia, frequency of emptying, urgency to urinate)” value [1, 12]?
**A.** The value was −38%.

**Q.** What about the “IPSS irritative subscore (nocturia, frequency of emptying, urgency to urinate)” value [1, 13] of the same substance?
**A.** Its value is 0%.

**Q.** What about the “IPSS irritative subscore (nocturia, frequency of emptying, urgency to urinate)” value [1, 14] of the same substance?
**A.** Its value is −16.7%.

**Q.** And the “IPSS irritative subscore (nocturia, frequency of emptying, urgency to urinate)” value [1, 15]?
**A.** The value was −25%.

**Q.** What about the “IPSS irritative subscore (nocturia, frequency of emptying, urgency to urinate)” value [1, 16] of the same substance?
**A.** Its value is −25%.

**Q.** And the “IPSS irritative subscore (nocturia, frequency of emptying, urgency to urinate)” value [1, 17]?
**A.** The value was −25%.

**Q.** What about the “IPSS irritative subscore (nocturia, frequency of emptying, urgency to urinate)” value [1, 18] of the same substance?
**A.** The value was −27.6%.

**Q.** What about the “IPSS irritative subscore (nocturia, frequency of emptying, urgency to urinate)” value [1, 19] of the same substance?
**A.** Its value is −40%.

**Q.** What about the “further decrease in nocturia frequency compared to placebo” value [2, 5] of the same substance?
**A.** Its value is “up to 11%”.

**Q.** What about the “Nocturia (percentage variation from baseline)” value [2, 6] of the same substance?
**A.** The value was 0%.

**Q.** And the “Nocturia (percentage variation from baseline)” value [2, 7]?
**A.** The value was −14%.

**Q.** What about the “Nocturia (percentage variation from baseline)” value [2, 8] of the same substance?
**A.** Its value is −26%.

**Q.** And the “Nocturia (percentage variation from baseline)” value [2, 9]?
**A.** The value was −27%.

**Q.** What about the “Nocturia (percentage variation from baseline)” value [2, 10] of the same substance?
**A.** Its value is −27%.

**Q.** And the “Nocturia (percentage variation from baseline)” value [2, 11]?
**A.** The value was −33%.

**Q.** What about the “Nocturia (percentage variation from baseline)” value [2, 12] of the same substance?
**A.** The value was −26%.

**Q.** What about the “Nocturia (percentage variation from baseline)” value [2, 13] of the same substance?
**A.** Its value is 0%.

**Q.** What about the “Nocturia (percentage variation from baseline)” value [2, 14] of the same substance?
**A.** Its value is −17%.

**Q.** What about the “Nocturia (percentage variation from baseline)” value [2, 15] of the same substance?
**A.** Its value is −26%.

**Q.** What about the “Nocturia (percentage variation from baseline)” value [2, 16] of the same substance?
**A.** The value was −30%.

**Q.** And the “Nocturia (percentage variation from baseline)” value [2, 17]?
**A.** The value was −25%.

**Q.** And the “Nocturia (percentage variation from baseline)” value [2, 18]?
**A.** Its value is −27%.

**Q.** What about the “Nocturia (percentage variation from baseline)” value [2, 19] of the same substance?
**A.** Its value is −29%.

**Q.** What about the “further decrease in frequency (of emptying) compared to placebo” value [3, 5] of the same substance?
**A.** Its value is “up to 29%”.

**Q.** What about the “Frequency of emptying (percentage variation from baseline)” value [3, 6] of the same substance?
**A.** Its value is 0%.

**Q.** What about the “Frequency of emptying (percentage variation from baseline)” value [3, 7] of the same substance?
**A.** Its value is −9%.

**Q.** What about the “Frequency of emptying (percentage variation from baseline)” value [3, 8] of the same substance?
**A.** The value was −19%.

**Q.** What about the “Frequency of emptying (percentage variation from baseline)” value [3, 9] of the same substance?
**A.** Its value is −20%.

**Q.** What about the “Frequency of emptying (percentage variation from baseline)” value [3, 10] of the same substance?
**A.** Its value is −26%.

**Q.** What about the “Frequency of emptying (percentage variation from baseline)” value [3, 11] of the same substance?
**A.** Its value is −27%.

**Q.** And the “Frequency of emptying (percentage variation from baseline)” value [3, 12]?
**A.** Its value is −31%.

**Q.** What about the “Frequency of emptying (percentage variation from baseline)” value [3, 13] of the same substance?
**A.** The value was 0%.

**Q.** And the “Frequency of emptying (percentage variation from baseline)” value [3, 14]?
**A.** Its value is −16%.

**Q.** What about the “Frequency of emptying (percentage variation from baseline)” value [3, 15] of the same substance?
**A.** Its value is −25%.

**Q.** What about the “Frequency of emptying (percentage variation from baseline)” value [3, 16] of the same substance?
**A.** Its value is −24%.

**Q.** And the “Frequency of emptying (percentage variation from baseline)” value [3, 17]?
**A.** Its value is −29%.

**Q.** And the “Frequency of emptying (percentage variation from baseline)” value [3, 18]?
**A.** Its value is −25%.

**Q.** And the “Frequency of emptying (percentage variation from baseline)” value [3, 19]?
**A.** Its value is −34%.

**Q.** What about the “Testosterone [ng/mL] (median)” value [4, 6] of the same substance?
**A.** Its value is 3.96 ng/mL.

**Q.** What about the “Testosterone [ng/mL] (median)” value [4, 7] of the same substance?
**A.** Its value is 2.59 ng/mL.

**Q.** What about the “Testosterone [ng/mL] (median)” value [4, 8] of the same substance?
**A.** Its value is 4.01 ng/mL.

**Q.** And the “Testosterone [ng/mL] (median)” value [4, 9]?
**A.** Its value is 4.10 ng/mL.

**Q.** What about the “Testosterone [ng/mL] (median)” value [4, 10] of the same substance?
**A.** The value was 3.96 ng/mL.

**Q.** What about the “Testosterone [ng/mL] (median)” value [4, 11] of the same substance?
**A.** The value was 4.12 ng/mL.

**Q.** What about the “Testosterone [ng/mL] (median)” value [4, 12] of the same substance?
**A.** Its value is 4.30 ng/mL.

**Q.** What about the “Testosterone [ng/mL] (median)” value [4, 13] of the same substance?
**A.** Its value is 3.71 ng/mL.

**Q.** What about the “Testosterone [ng/mL] (median)” value [4, 14] of the same substance?
**A.** Its value is 2.19 ng/mL.

**Q.** And the “Testosterone [ng/mL] (median)” value [4, 15]?
**A.** The value was 3.70 ng/mL.

**Q.** And the “Testosterone [ng/mL] (median)” value [4, 16]?
**A.** The value was 3.73 ng/mL.
